What was measured:
preformed α-Syn fibrils [1] = molecular target: T1, preformed α-Syn fibrils (Homo sapiens, UniProt P37840); assay: Calcein-AM/EthD-1 staining, preformed α-Syn fibrils with analogs; type: cell-based; settings: SH-SY5Y cells
T1 construct: made in house; host or cells: Escherichia coli BL21
Description: Previously it has been shown that curcumin decreases the toxicity of α-Syn amyloid fibrils by reducing the exposed hydrophobic surfaces. To delineate whether curcumin analogs can decrease the toxicity of preformed α-Syn fibrils, we performed cell viability assay. For this, 10-days incubated α-Syn solution was centrifuged (fibril formation was confirmed by electron microscopy (EM)) and the pelleted fibrils were then re-dissolved in same volume of 20 mM MES buffer (pH 6.0, 0.01% NaN3). The concentration of the fibrils was determined by subtraction of supernatant concentration from the original concentration of α-Syn kept for fibrillation. […] After incubation, we measured the effect of curcumin analogs on the toxicity of preformed α-Syn amyloid fibrils by MTT reduction assay on SH-SY5Y cells. […]
(§1) For this assay, SH-SY5Y cells were seeded in 96 well plate and incubated with identical concentrations of oligomers/fibrils (as used in MTT assay) in absence and presence of curcumin and its analogs for 36 h in 5% CO2 incubator at 37 °C. […] Calcein-AM/Ethidium homodimer-1 signal was then checked and imaged with an inverted fluorescence microscope (Leica DMi8). […] The free calcein emits strong fluorescence signal at ~535 nm, which could be easily observed in the green channel of a microscope. […]

α-Syn fibrils [2] = molecular target: T2, α-Syn fibrils (Homo sapiens, UniProt P37840); assay: MTT assay of α-Syn fibrils formed in presence of curcumin analogs; type: cell-based; settings: 10 μM α-Syn fibril, 36 h, SH-SY5Y
T2 construct: made in house; host or cells: Escherichia coli BL21
Description: Next, we measured the effect of α-Syn fibrils formed in presence and absence of curcumin analogs on the viability of SH-SY5Y neuronal cell line by MTT reduction assay. SH-SY5Y cells were incubated with 10 μM α-Syn fibril formed in presence of various curcumin analogs for 36 h. […] However, the extent of decrease in toxicity was different for different analogs. […] The calcein-AM/ethidium homodimer-1 staining also further corroborated the results obtained from MTT and LDH assay (Fig. 8C).

α-Syn oligomers [3] = molecular target: T3, α-Syn oligomers (Homo sapiens, UniProt P37840); assay: TEM of α-Syn oligomers with C1/C6; type: biochemical
T3 construct: made in house; host or cells: Escherichia coli BL21
Text: (§2) It has been shown that α-Syn mutants that form oligomers preferentially are more toxic and kill dopaminergic neurons in animal models as compared to fibril forming mutants. Therefore, compounds that effectively reduce the toxicity of oligomers could be beneficial for the treatment of PD. In the present study, we tested the effect of curcumin and its analogs on the toxicity, hydrophobic exposure and morphology of α-Syn oligomers isolated using size exclusion chromatography (SEC). The toxicity of α-Syn oligomers in presence and absence of curcumin/analogs were initially tested using MTT assay. […] To further validate the effectiveness of C6 to reduce the cytotoxicity of α-Syn oligomers, we also performed LDH cytotoxicity assay and Calcein-AM/Ethidium homodimer-1 staining. […] As previously it has been proposed that curcumin reduces the oligomers toxicity by altering their exposed hydrophobic surface, we also measured the hydrophobic surface exposure of preformed α-Syn oligomers incubated with curcumin and its analogs.
5 μl of various species of α-Syn (50 μM) incubated in absence and presence of curcumin and its analogs were spotted on carbon coated formavar grid and air dried for 10 min. The samples were then washed thrice with autoclaved MQ. The samples were then stained with 10 μl of uranyl formate 1% (w/v) and incubated in dark for 10 min. […]

α-Syn oligomers [4] = molecular target: T3, α-Syn oligomers; assay: Calcein-AM/EthD-1 staining, α-Syn oligomers with C1/C6; type: cell-based; settings: SH-SY5Y cells
Text: It has been shown that α-Syn mutants that form oligomers preferentially are more toxic and kill dopaminergic neurons in animal models as compared to fibril forming mutants. Therefore, compounds that effectively reduce the toxicity of oligomers could be beneficial for the treatment of PD. In the present study, we tested the effect of curcumin and its analogs on the toxicity, hydrophobic exposure and morphology of α-Syn oligomers isolated using size exclusion chromatography (SEC). The toxicity of α-Syn oligomers in presence and absence of curcumin/analogs were initially tested using MTT assay. […] As previously it has been proposed that curcumin reduces the oligomers toxicity by altering their exposed hydrophobic surface, we also measured the hydrophobic surface exposure of preformed α-Syn oligomers incubated with curcumin and its analogs.
as §1

α-Syn oligomers [5] = molecular target: T3, α-Syn oligomers; assay: LDH cytotoxicity assay of α-Syn oligomers with C1/C6; type: cell-based; settings: oligomers incubated 30 minutes with compound; SH-SY5Y cells
Text: as §2
10 μM of α-Syn oligomers/fibrils incubated with and without 5 μM curcumin/analogs were added to SH-SY5Y cells (10,000 cells/well) in 96 well plate. […] The percent LDH release was plotted as difference in the absorbance value of 490 nm and 690 nm, considering 100% release for the TritonX-100 treated cells.

α-Syn fibrils [6] = molecular target: T2, α-Syn fibrils; assay: LDH cytotoxicity assay of α-Syn fibrils formed in presence of curcumin analogs; type: cell-based; settings: SH-SY5Y cells
Text: (§3) The percent LDH release was plotted as difference in the absorbance value of 490 nm and 690 nm, considering 100% release for the TritonX-100 treated cells.

preformed α-Syn fibrils [7] = molecular target: T1, preformed α-Syn fibrils; assay: CD spectroscopy of preformed α-Syn fibrils with analogs; type: biochemical; settings: 0 h and 48 h of incubation
Description: Further, the effect of curcumin analogs on the secondary structure of protein in preformed amyloid fibrils was studied by circular dichroism (CD) spectroscopy at 0 h and after 48 h of incubation. […] To further validate this, Fourier transform infrared spectroscopy (FTIR) was also performed with these samples, where spectra were recorded from 1500 to 1800 cm^−1.The region characteristic of protein secondary structures (1600–1700 cm^−1) was deconvoluted and the peaks were assigned according to published reports. FTIR spectra in the 1600–1700 cm^−1 region of preformed α-Syn fibrils in absence and presence of curcumin and its analogs are presented in Figs 4B and S4 and their percentage of secondary structures are shown in Table-S1.
20 μl of protein solution from 80 μM stock was diluted to 200 μl in 20 mM MES buffer, pH 6.0 with 0.01% NaN3 such that final protein concentration becomes 8 μM. The protein solution was then placed into a quartz cell (Hellma, Forest Hills, NY) of 0.1 cm path-length. Spectra were recorded using JASCO-810 instrument at 25 °C. Spectra acquisition was over the wavelength range of 198–260 nm with the scan speed of 100 nm/min, bandwidth 1 nm, data pitch 1 nm and response time of 1 sec. Processing of raw data was done by subtraction of buffer spectra and subsequently smoothing according to the manufacturer’s instructions.

preformed α-Syn fibrils [8] = molecular target: T1, preformed α-Syn fibrils; assay: LDH cytotoxicity assay of preformed α-Syn fibrils incubated with curcumin analogs; type: cell-based; settings: fibrils incubated with analog 48 h; SH-SY5Y cells
Description: (§4) The concentration of the fibrils was determined by subtraction of supernatant concentration from the original concentration of α-Syn kept for fibrillation.
as §3

[9] = molecular target: T4, preformed α-Syn amyloid fibrils (Homo sapiens, UniProt P37840); assay: MTT assay of preformed α-Syn fibrils incubated with curcumin analogs; type: cell-based; settings: fibrils incubated with analog 48 h at 37 °C; SH-SY5Y cells
T4 construct: made in house; host or cells: Escherichia coli BL21
Description: as §4

[10] = Stability of curcumin analogs by time-dependent intrinsic fluorescence; type: physicochemical; settings: 20 mM MES buffer pH 6.0, 0.01% NaN3, 37 °C
Description: 1μl of this DMSO-stock solution was transferred to 2 ml microfuge tube and 1 ml of 20 mM MES buffer (pH 6.0, 0.01% NaN3) was added to it and mixed immediately by vortexing. These solutions were incubated at 37 °C and their respective fluorescence was taken at certain time intervals. The fluorescence was monitored by placing the 200 μl of the incubated solution in 0.1 cm path-length quartz cuvette (Hellma, Forest Hills, NY) and the spectra were acquired by using FluoroMax-4 spectrofluorometer (HORIBA JobinYvon) instrument with excitation and emission slit widths of 5 nm and 10 nm respectively. The fluorescence intensity maxima for each sample were plotted against time of incubation and fitted in exponential decay 1 in the Origin 8.0 software according to manufacture’s protocol (Fig. 2A).

[11] = molecular target: T5, preformed α-Syn oligomers (Homo sapiens, UniProt P37840); assay: Nile red binding assay on α-Syn oligomers; type: biochemical; settings: compared to α-Syn oligomers alone
T5 construct: made in house; host or cells: Escherichia coli BL21
Description: Therefore, compounds that effectively reduce the toxicity of oligomers could be beneficial for the treatment of PD.
(§5) Stock solution of NR was prepared in DMSO (1 mM). […] Similar experimental protocol was used for NR binding to oligomers. FluoroMax-4 spectrofluorometer (HORIBA JobinYvon) was used with excitation and emission slit widths of 5 nm. The maximum NR fluorescence obtained at ~630 nm was used for plotting bar diagrams.

α-Syn oligomers [12] = molecular target: T3, α-Syn oligomers; assay: MTT assay of α-Syn oligomers pre-incubated with curcumin analogs; type: cell-based; settings: 10 μM α-Syn + 5 μM analog, 30 min RT; SH-SY5Y cells
Text: as §2
For isolation of α-Syn oligomers, we used previously established protocol. Briefly, lyophilized α-Syn powder was dissolved in MES buffer, pH 6.0, 0.01% NaN3, at a concentration of 50 mg/ml. The dissolved protein was then centrifuged at 14,000 × g for 30 min at 4 °C using a table top microcentrifuge (HITACHI, himac CT15RE, Japan). […]

α-Syn = molecular target: T6, α-Syn (Homo sapiens, UniProt P37840); assay: TEM of α-Syn aggregates formed in presence of analogs; type: biochemical
T6 construct: made in house; host or cells: Escherichia coli BL21
Description: Subsequently, we examined the effect of these analogs on α-Syn oligomerization by time dependent static light scattering experiment. […] After aggregation, TEM study was done to determine the effects of these analogs on the morphology of the resultant aggregates.
The samples were then washed thrice with autoclaved MQ. The samples were then stained with 10 μl of uranyl formate 1% (w/v) and incubated in dark for 10 min. The EM image of each sample was acquired at 120 kV with magnifications in the range of 26,000X and 43,000X using a transmission electron microscope (TECNAI12 D312 FEI, Netherlands).

preformed α-Syn fibrils [13] = molecular target: T1, preformed α-Syn fibrils; assay: Nile red binding assay on preformed α-Syn fibrils; type: biochemical; settings: fibrils incubated with analog 48 h
Description: as §5

| SMILES | Calcein-AM/EthD-1 staining with preformed α-Syn fibrils (preformed α-Syn fibrils [1]) | toxicity of α-Syn fibrils formed in presence of analog, MTT (α-Syn fibrils [2]) | morphology of α-Syn oligomers (TEM) (α-Syn oligomers [3]) | ethidium homodimer staining with α-Syn oligomers (α-Syn oligomers [4]) | LDH release with α-Syn oligomers (α-Syn oligomers [5]) | toxicity of α-Syn fibrils formed in presence of analog, LDH (α-Syn fibrils [6]) | secondary structure of preformed α-Syn fibrils by CD (preformed α-Syn fibrils [7]) | effect on cell death by preformed α-Syn fibrils, LDH (preformed α-Syn fibrils [8]) | effect on toxicity of preformed α-Syn fibrils, MTT [9] | relative stability compared with curcumin (slope of normalized fluorescence versus time) [10] | Nile red fluorescence of α-Syn oligomers (exposed hydrophobic surface) [11] | effect on toxicity of α-Syn oligomers, MTT (α-Syn oligomers [12]) | average fibril thickness of fibrils formed in presence of analog (α-Syn) | Nile red fluorescence of preformed α-Syn fibrils (exposed hydrophobic surface) (preformed α-Syn fibrils [13]) |
| --- | --- | --- | --- | --- | --- | --- | --- | --- | --- | --- | --- | --- | --- | --- |
| COc1cc(/C=C/C(=O)CC(=O)/C=C/c2ccc(O)c(OC)c2)ccc1O [C1, Curcumin (diferuloylmethane), reference compound] | less nuclear staining by EthD-1 | less toxicity to cells | significantly altered their morphology | less ethidium homodimer staining | reduced LDH release | less toxicity to cells | remains unaltered | decrease in cell death | reduction in toxicity |  |  |  |  |  |
| COc1ccc(/C=C/C(=O)CC(=O)/C=C/c2ccc(OC)c(OC)c2)cc1OC [C2] |  |  |  |  |  |  |  | decrease in cell death |  | less stable than curcumin | increase in NR fluorescence | slight reduction in the toxicity | more in comparison to fibrils formed in presence of other analogs | less NR fluorescence for fibrils as compared to curcumin |
